# Patent US9253983B2, “Triazole compound and use thereof” (KUREHA CORPORATION, priority 2011, dated 2016)
# Columns and labels:
# [1] = tested on: wheat; test: Necrosis (adverse effects) of seed treatment on wheat seeds; assay type: in vivo; conditions: 20 days after sowing
# Experimental: A pot experiment was performed to evaluate necrosis (adverse effects) caused by the seed treatment. Compound (1-1a) and Compound (1-2a), each which was dissolved in DMSO to make up such a concentration that the seeds would be treated in treatment amount of 2 g to 200 g ai/100 kg seeds, were each applied to wheat seeds in a vial, and thereafter 8 wheat seeds were sowed in an 80-cm^2 pot. The pot was kept in a greenhouse with water supplied to its bottom. 20 days after the sowing, an extent of necrosis (percentage of necrotic surface area) of wheat was evaluated. A necrosis index was derived from the percentage of the necrotic surface area, based on the criteria shown by Table 13. In Table 13, a smaller necrosis index indicates a lesser adverse effect of necrosis caused by the treatment with the use of a plant disease controlling agent.
# [2] = tested on: Pyrenophora graminea; test: Test 2 for antifungal effect, plate medium: P.g; assay type: cell-based; conditions: PDA plate medium
# Experimental: (§1) Compound (1-1b) or Compound (1-2b) was dissolved in dimethyl sulfoxide, and the resulting solution was added to a PDA medium (potato dextrose-agar medium) at about 60° C. The medium and the solution were mixed thoroughly in a conical flask, poured into a petri dish, and allowed to solidify. In this way, a plate medium containing Compound (1-1b) or Compound (1-2b) at a certain concentration was prepared.
# Meanwhile, test microorganisms cultured on a plate medium in advance were cut out with the use of a cork borer 4 mm in diameter, and were inoculated onto the compound-containing plate medium. After the inoculation, the pathogens were cultured at their optimum growth temperatures (for example, refer to LIST OF CULTURES 1996 microorganisms 10th edition, Institute for Fermentation (foundation)) for 1 day to 7 days, and their growth was determined by measuring the diameter of their flora. The extent of growth of the pathogens on the compound-containing plate medium was compared with that of pathogens on a plate medium where no compound was added, and mycelial growth inhibition rate was calculated as in Experiment Example 10. Note that, in Experiment Example 11, controls used in the antifungal effect tests are Compound (1-1a) and Compound (1-2a) instead of Compound (1-1b) and Compound (1-2b), respectively.
# The results were rated on a 1-to-5 scale as in Experiment Example 10.
# [3] = tested on: Rhizoctonia solani; test: Test 1 for antifungal effect, plate medium: R.s; assay type: cell-based; conditions: PDA plate medium
# Experimental: as §1, with “(1-1a)” for “(1-1b)”, “(1-2a)” for “(1-2b)”
# (§2) Meanwhile, test microorganisms cultured on a plate medium in advance were cut out with the use of a cork borer 4 mm in diameter, and were inoculated onto the compound-containing plate medium. After the inoculation, the microorganisms were cultured at their optimum growth temperatures (for example, refer to LIST OF CULTURES 1996 microorganisms 10th edition, Institute for Fermentation (foundation)) for 1 day to 7 days, and their growth was determined by measuring the diameter of their flora. The extent of growth of the microorganisms on the compound-containing plate medium was compared with that of microorganisms on a plate medium where no compound was added, and mycelial growth inhibition rate was calculated by the following equation: R=100(dc−dt)/dc where R is mycelial growth inhibition rate (%), dc is the flora diameter in untreated plate, and dt is the flora diameter in plate treated with the compound.
# (§3) A larger antifungal index indicates a better antifungal effect.
# [4] = tested on: Rhizopus oryzae; test: Test 1 for antifungal effect, plate medium: R.o; assay type: cell-based; conditions: PDA plate medium
# Experimental: as §1, with “(1-1a)” for “(1-1b)”, “(1-2a)” for “(1-2b)”
# as §2, §3
# [5] = tested on: Botrytis cinerea; test: Controlling effect on cucumber gray mold by foliage spray treatment (Tests 1 and 2); assay type: in vivo; conditions: foliage spray 12.5 mg/L, 1,000 L/ha, four days after inoculation
# Experimental: The cucumber plants had been grown in square plastic pots (6 cm×6 cm). After the suspension was then left to dry, paper discs (8 mm in diameter) impregnated with a spore suspension of Botrytis cinerea w ere placed on the leaves, and the plants were kept at 20° C. in a high humidity environment. Four days after inoculation, the lesion degree of the cucumber gray mold was examined in accordance with the criteria shown in Table 1, and the protective values were calculated by the following equation: Protective value (%)=(1−Average lesion degree in sprayed plot/Average lesion degree in unsprayed plot)×100.
# The cucumber plants had been grown in square plastic pots (6 cm×6 cm). After the leaves were air-dried, paper discs (8 mm in diameter) impregnated with a spore suspension of cucumber graymold-causing microorganisms were placed on the leaves, and the plants were kept at 20° C. in a high humidity environment. 4 days after the inoculation, the lesion degree of the cucumber gray mold was examined, and the protective values were calculated as were in Experiment Example 1.
# [6] = tested on: Glomerella cingurata; test: Test 1 for antifungal effect, plate medium: G.c; assay type: cell-based; conditions: PDA plate medium
# Experimental: as §1, with “(1-1a)” for “(1-1b)”, “(1-2a)” for “(1-2b)”
# as §2, §3
# [7] = tested on: Botrytis cinerea; test: Test 1 for antifungal effect, plate medium: B.c; assay type: cell-based; conditions: PDA plate medium
# Experimental: as §1, with “(1-1a)” for “(1-1b)”, “(1-2a)” for “(1-2b)”
# as §2, §3
# [8] = tested on: Puccinia recondita; test: Controlling effect on wheat brown rust (leaf rust) by foliage spray treatment (Tests 1 and 2); assay type: in vivo; conditions: foliage spray 0.8 mg/L, 1,000 L/ha, 11 days after inoculation
# Experimental: The wheat plants had been grown in square plastic pots (6 cm×6 cm). The suspensions were left to dry, and inoculated with spores of Puccinia recondita (adjusted at 200 spores per field of vision, Gramin S was added at 60 ppm) by spraying, and kept at 25° C. in a high humidity environment for 48 hours. After that, the plants were kept in a greenhouse. 11 days after the inoculation, the lesion degree of the wheat leaf rust was examined in accordance with the criteria shown in Table 4, and the protective values were calculated by the following equation. Protective value (%)=(1−Average lesion degree in sprayed plot/Average lesion degree in unsprayed plot)×100
# The wheat plants had been grown in square plastic pots (6 cm×6 cm). The leaves were air-dried, and inoculated with spores of Puccinia recondita (adjusted at 200 spores per field of vision, Gramin S was added at 60 ppm) by spraying, and kept at 25° C. in a high humidity environment for 48 hours. After that, the plants were kept in a greenhouse. 11 days after the inoculation, the lesion degree of the wheat leaf rust was examined, and the protective values were calculated as were in Experiment Example 2.
# [9] = treatment amount 2 g ai/100 kg seeds
# [10] = treatment amount 20 g ai/100 kg seeds
# [11] = treatment amount 200 g ai/100 kg seeds
Structure (SMILES),"Necrosis index [1, 9]","Necrosis index [1, 10]","Necrosis index [1, 11]",Antifungal index (mycelial growth inhibition rate) ([2]; 0.04 mg/L),Antifungal index (mycelial growth inhibition rate) ([2]; 0.08 mg/L),Antifungal index (mycelial growth inhibition rate) ([2]; 0.16 mg/L),Antifungal index (mycelial growth inhibition rate) ([2]; 0.31 mg/L),Antifungal index (mycelial growth inhibition rate) ([2]; 0.63 mg/L),Antifungal index (mycelial growth inhibition rate) ([2]; 1.25 mg/L),Antifungal index (mycelial growth inhibition rate) ([3]; 0.16 mg/L),Antifungal index (mycelial growth inhibition rate) ([3]; 0.31 mg/L),Antifungal index (mycelial growth inhibition rate) ([3]; 0.63 mg/L),Antifungal index (mycelial growth inhibition rate) ([3]; 1.25 mg/L),Antifungal index (mycelial growth inhibition rate) ([3]; 2.50 mg/L),Antifungal index (mycelial growth inhibition rate) ([4]; 0.16 mg/L),Antifungal index (mycelial growth inhibition rate) ([4]; 0.31 mg/L),Antifungal index (mycelial growth inhibition rate) ([4]; 0.63 mg/L),Antifungal index (mycelial growth inhibition rate) ([4]; 1.25 mg/L),Antifungal index (mycelial growth inhibition rate) ([4]; 2.50 mg/L),Protective value (%) [5] [%],other results
"CC1(CCl)CCC(Cc2ccc(Cl)cc2)C1(O)Cn1cncn1 (single isomer, unassigned) [Compound (1-1a), (1,2-cis, 1,5-cis)-5-(4-chlorobenzyl)-2-chloromethyl-2-methyl-1-(1H-1,2,4-triazole-1-ylmethyl)cyclopentanol]",0 (Less than 1%),0 (Less than 1%),0 (Less than 1%),2 (Less than 70% but not less than 60%),3 (Less than 80% but not less than 70%),4 (Less than 90% but not less than 80%),5 (90% or greater),5 (90% or greater),5 (90% or greater),2 (Less than 70% but not less than 60%),2 (Less than 70% but not less than 60%),2 (Less than 70% but not less than 60%),2 (Less than 70% but not less than 60%),3 (Less than 80% but not less than 70%),3 (Less than 80% but not less than 70%),4 (Less than 90% but not less than 80%),5 (90% or greater),5 (90% or greater),5 (90% or greater),100,Antifungal index (mycelial growth inhibition rate) ([6]; 0.16 mg/L): 5 (90% or greater); Antifungal index (mycelial growth inhibition rate) ([6]; 0.31 mg/L): 5 (90% or greater); Antifungal index (mycelial growth inhibition rate) ([6]; 0.63 mg/L): 5 (90% or greater); Antifungal index (mycelial growth inhibition rate) ([6]; 1.25 mg/L): 5 (90% or greater); Antifungal index (mycelial growth inhibition rate) ([6]; 2.50 mg/L): 5 (90% or greater); Antifungal index (mycelial growth inhibition rate) ([7]; 0.16 mg/L): 3 (Less than 80% but not less than 70%); Antifungal index (mycelial growth inhibition rate) ([7]; 0.31 mg/L): 5 (90% or greater); Antifungal index (mycelial growth inhibition rate) ([7]; 0.63 mg/L): 5 (90% or greater); Antifungal index (mycelial growth inhibition rate) ([7]; 1.25 mg/L): 5 (90% or greater); Antifungal index (mycelial growth inhibition rate) ([7]; 2.50 mg/L): 5 (90% or greater); Protective value (%) [8]: 95%
"CC1(CCl)CCC(Cc2ccc(Cl)cc2)C1(O)Cn1cncn1 (single isomer, unassigned) [Compound (1-1b), (1,2-cis, 1,5-cis)-5-(4-chlorobenzyl)-2-chloromethyl-2-methyl-1-(1H-1,2,4-triazole-1-ylmethyl)cyclopentanol]",0 (Less than 1%),2 (Less than 20% but not less than 5%),2 (Less than 20% but not less than 5%),3 (Less than 80% but not less than 70%),4 (Less than 90% but not less than 80%),5 (90% or greater),5 (90% or greater),5 (90% or greater),5 (90% or greater),1 (Less than 60%),1 (Less than 60%),2 (Less than 70% but not less than 60%),2 (Less than 70% but not less than 60%),2 (Less than 70% but not less than 60%),1 (Less than 60%),1 (Less than 60%),1 (Less than 60%),1 (Less than 60%),4 (Less than 90% but not less than 80%),45,Antifungal index (mycelial growth inhibition rate) ([6]; 0.16 mg/L): 2 (Less than 70% but not less than 60%); Antifungal index (mycelial growth inhibition rate) ([6]; 0.31 mg/L): 4 (Less than 90% but not less than 80%); Antifungal index (mycelial growth inhibition rate) ([6]; 0.63 mg/L): 5 (90% or greater); Antifungal index (mycelial growth inhibition rate) ([6]; 1.25 mg/L): 5 (90% or greater); Antifungal index (mycelial growth inhibition rate) ([6]; 2.50 mg/L): 5 (90% or greater); Antifungal index (mycelial growth inhibition rate) ([7]; 0.16 mg/L): 1 (Less than 60%); Antifungal index (mycelial growth inhibition rate) ([7]; 0.31 mg/L): 1 (Less than 60%); Antifungal index (mycelial growth inhibition rate) ([7]; 0.63 mg/L): 3 (Less than 80% but not less than 70%); Antifungal index (mycelial growth inhibition rate) ([7]; 1.25 mg/L): 4 (Less than 90% but not less than 80%); Antifungal index (mycelial growth inhibition rate) ([7]; 2.50 mg/L): 5 (90% or greater); Protective value (%) [8]: 29%
